Where two headings read alike, the source gives them in different places.
Tests used:
[1] = influencing of the amphetamine group toxicity; format: in vivo, male NMRI mice
Procedure: (§1) […]. They were given a standard feed and water ad libitum up to the commencement of the experiments.
(§2) The test compounds were administered in a volume of 10 ml./kg./body weight per mouse. As carrier, there was used physiological sodium chloride solution or a suspension of 0.5% tragacanth in physiological sodium chloride solution.
3. Influencing of the amphetamine group toxicity.
There was investigated the influence of the test compounds on the mortality of amphetamine-treated, aggregated mice. The dosaging of d-amphetamine was 15 mg./kg., which should permit the recognition not only of a synergism but also of an antagonism towards a sympathomimetic compound. Carrying out the experiment:
30 minutes after the subcutaneous administration of the test substance, the animals received subcutaneously 15 mg./kg. of d-amphetamine sulphate. The number of dead animals was recorded after 2, 4 and 7 hours. For the maintenance of the group size, the dead animals were replaced by untreated animals (6 animals/dosage group).

[2] = format: in vivo, male NMRI mice; details: ED50 p.o. / ED50 s.c.
Procedure: as §1, §2
(§3) The experimental results are given as average values with a mean error of the average value (x±S.E.M.). The ED50 values were calculated according to Litchfield and Wilcoxon (J. Pharmacol. Exp. Ther., 96, 99/1949). The compounds were thereby tested in 4 dosages (p≤0.5).
(§4) For the significance calculation, there was used Student's t test (see Angewandte Statistik, pub. Stringer Verlag, Berlin, Heidelberg, 242/1983), as well as the range sum test of Mann and Withney (Ann. Math. stat., 50, 1818/1947).
(§5) 1.1. In the acetic acid writhing test (see R. Koster et al., Fed. proc., 18, 412/1954), the typical stretching movements referred to as "writhing", were produced by the intraperitoneal administration of a 0.6% acetic acid solution. 30 minutes previously, the substance to be tested was administered subcutaneously (s.c.) or orally ([…].) to the animals. 3 minutes after administration of the acetic acid solution, the total number of stretching movements in a period of time of 10 minutes was ascertained. From the decrease of the stretching reactions due to the action of the test compound in comparison with non-pretreated control groups, there was determined the percentage inhibition action.

[3] = format: in vivo, male NMRI mice; details: s.c. increasing dosages over 2 days, naloxone i.p.; for % of reacting animals: 10 minutes
Procedure: as §1, §2
2. Development of dependency.
Withdrawal jumps of the mouse (see J. K. Saelens et al., Arch. Int. Pharmacodyn. Ther., 190, 213/1971).
Mice which were dependent upon morphine or other opiates react, when treated with morphine antagonists, with a flight reaction (see F. Huidobro and C. Maggiolo, Arch. Int. Pharmacodyn. Ther., 158, 97/1965); E. L. Way et al., Science, 162, 1290/1968). This flight reaction manifests itself in very vigorous jumping reactions which continue for about 10 minutes. From the number of reacting animals and especially from the jump frequency per animal, there can be deduced the strength of the withdrawal symptoms and thus the degree of dependency upon the test compound. Carrying out of the test:
The test and standard compounds were administered subcutaneously according to the scheme shown in the following Table III in increasing dosages over the course of 2 days.
For the provocation of the withdrawal jumps, the animals received intraperitoneally, 2 hours after the last compound administration, 30 mg./kg. naloxone hydrochloride.
Immediately after the administration of the naloxone, the animals were placed individually in a 5 liter glass beaker. Subsequently, the number of jump movements was recorded during the course of 10 minutes. For evaluation, the number of animals reacting the withdrawal jumps, as well as the average number of jumps per animal, was used.
The animals of the naloxone control group were, up to the administration of naloxone, treated with a 0.9% aqueous solution of sodium chloride (6 animals/dosage group).

[4] = antidepressive action: reserpine reversal test (tetrabenazine); format: in vivo, male NMRI mice; details: 50 and 25 mg./kg. s.c.
Procedure: (§6) For the pharmacological investigations described in the following, there were used male NMRI mice with a weight of from 15 to 30 g. The animals were kept under usual laboratory conditions, randomised and subjected to a light-dark change with a 12 hour rhythm. They were given a standard feed and water ad libitum up to the commencement of the experiments.
as §2
7. Antidepressive action.
There was used the reserpine reversal test (see G. Zettler, K. Mahler and F. Daniel, Naunyn-Schmiedeberg's Arch. Exp. Path. Pharmacol., 238, 468/1960; ibid. 236, 422/1958). 30 minutes after the subcutaneous administration of the test compounds, the animals (6 animals per dosage group) received subcutaneously 40 mg./kg. tetrabenazine dissolved in 0.5% aqueous ascorbic acid solution. 30 and 60 minutes after the tetrabenazine administration, the animals were placed on a vertical rod (length 90 cm., diameter 1.5 cm., coiled round with 0.2 cm. thick thread) and observed for 30 seconds. Those animals which remained motionless during this time were evaluated as being cataleptic. Previously, the degree of ptosis was assessed.

[5] = format: in vivo, male NMRI mice; details: for % inhibition action ± SEM with naloxone: with naloxone hydrochloride 20 mg./kg. s.c.; for change in % (with vs without naloxone): given without sign
Procedure: They were given a standard feed and water ad libitum up to the commencement of the experiments.
as §2, §3, §4, §5
Naloxone-antagonistic action in the writhing test.
20 Minutes before the subcutaneous administration of the test compounds, the animals were given 20 mg./kg. naloxone hydrochloride subcutaneously. The further carrying out of the experiments was as described above.

[6] = testing for ataxia (rotating rod test); format: in vivo, male NMRI mice
Procedure: as §6, §2
There was used the rotating rod test (see F. Gross et al., Schweiz. Med. Wschr., 85, 305/1955).
5 animals per dosage group were trained to keep themselves on a horizontally rotating rod made of synthetic resin (16 rpm). 40, 80 and 120 minutes after the subcutaneous administration of the test compounds, the animals were again tested. From the number of animals which fell off prematurely, there was determined the disturbance of the movement coordination.

[7] = 25 mg/kg s.c. + d-amphetamine sulphate 15 mg./kg. s.c.
[8] = 50 mg/kg s.c. + d-amphetamine sulphate 15 mg./kg. s.c.

SMILES | % of deceased animals after 2 hrs. [1, 7] [%] | % of deceased animals after 4 hrs. [1, 7] [%] | % of deceased animals after 7 hrs. [1, 7] [%] | % of deceased animals, total [1, 7] [%] | % of deceased animals after 2 hrs. [1, 8] [%] | % of deceased animals after 4 hrs. [1, 8] [%] | % of deceased animals after 7 hrs. [1, 8] [%] | % of deceased animals, total [1, 8] [%] | quotient p.o./s.c. (of ED50) [2] | average number of jumps/animal/10 minutes [3] | % of reacting animals [3] [%] | influence on tetrabenazine-induced catalepsy [4] | influence on tetrabenazine-induced ptosis [4] | % inhibition action ± SEM with naloxone ([5]; 12.5 mg/kg s.c.) [%] | % inhibition action ± SEM without naloxone ([5]; 12.5 mg/kg s.c.) [%] | change in % (with vs without naloxone) ([5]; 12.5 mg/kg s.c.) [%] | % inhibition action ± SEM with naloxone ([5]; 25 mg/kg s.c.) [%] | % inhibition action ± SEM without naloxone ([5]; 25 mg/kg s.c.) [%] | change in % (with vs without naloxone) ([5]; 25 mg/kg s.c.) [%] | % inhibition action ± SEM with naloxone ([5]; 50 mg/kg s.c.) [%] | other results
CC12CCNCC(C1)c1ccccc1O2 (centres unmarked) [Example 6, 2,3,4,5,6,7-hexahydro-2-methyl-2,7-methano-1,5-benzoxazonine] | 0 | 0 | 16.7 | 16.7 | 0 | 16.7 | 0 | 16.7 | 1.65 | 0 | 0 | did not influence | did not influence | 39.7 ± 10.4 | 33.2 ± 3.2 | 6.5 | 65.5 ± 6.5 | 58.9 ± 10.1 | 6.6 | 91.8 ± 3.3 | % inhibition action ± SEM without naloxone ([5]; 50 mg/kg s.c.): 84.6 ± 7.7%; change in % (with vs without naloxone) ([5]; 50 mg/kg s.c.): 7.2%; change of the maintenance time in % compared with the control group, after 40 min. ([6]; 25 mg/kg s.c.): 0%; change of the maintenance time in % compared with the control group, after 80 min. ([6]; 25 mg/kg s.c.): -8%; change of the maintenance time in % compared with the control group, after 120 min. ([6]; 25 mg/kg s.c.): 0%; change of the maintenance time in % compared with the control group, after 40 min. ([6]; 50 mg/kg s.c.): -17%; change of the maintenance time in % compared with the control group, after 80 min. ([6]; 50 mg/kg s.c.): 0%; change of the maintenance time in % compared with the control group, after 120 min. ([6]; 50 mg/kg s.c.): -8%
CC1NCCC2(C)CC1c1ccccc1O2 (centres unmarked) [Example 9, 2,3,4,5,6,7-hexahydro-2,6-dimethyl-2,7-methano-1,5-benzoxazonine] | 16.7 | 0 | 0 | 16.7 | 0 | 0 | 33.3 | 33.3 | 1.45 | 0 | 0 | did not influence | did not influence | 52.0 ± 1.5 | 57.0 ± 7.6 | 5.0 | 80.1 ± 6.8 | 64.0 ± 5.0 | 16.1 | 88.4 ± 11.6 | % inhibition action ± SEM without naloxone ([5]; 50 mg/kg s.c.): 84.9 ± 2.7%; change in % (with vs without naloxone) ([5]; 50 mg/kg s.c.): 3.5%; change of the maintenance time in % compared with the control group, after 40 min. ([6]; 25 mg/kg s.c.): -13%; change of the maintenance time in % compared with the control group, after 80 min. ([6]; 25 mg/kg s.c.): -17%; change of the maintenance time in % compared with the control group, after 120 min. ([6]; 25 mg/kg s.c.): -12%; change of the maintenance time in % compared with the control group, after 40 min. ([6]; 50 mg/kg s.c.): 0%; change of the maintenance time in % compared with the control group, after 80 min. ([6]; 50 mg/kg s.c.): 0%; change of the maintenance time in % compared with the control group, after 120 min. ([6]; 50 mg/kg s.c.): -2%
